Results on 21 compounds are retold here after publication PMC2914574 (Journal of neurochemistry, 2010).

Test [1] addresses T1, WT hDAT (Homo sapiens, UniProt Q01959). Kind of test: inhibition of [3H]DA uptake in intact HEK-hDAT cells. Type of test: cell-based. The following applies: for Uptake Kapp, WT: inhibition of [3H]DA uptake, intact HEK-hDAT cells, 5 min; for Kapp / Ki ratio: uptake Kapp over binding Ki at WT hDAT.
Another test addresses wild-type hDAT (Homo sapiens, UniProt Q01959). Kind of test: displacement of intact-cell [3H]CFT binding, wild-type hDAT. The following applies: for Ki: inhibition of [3H]CFT binding, intact HEK-hDAT cells, 21°C, 15 min; for fold increase in binding affinity over monovalent DA: relative to dopamine.
A further test concerns the target T2, hDAT W84L mutant (Homo sapiens, UniProt Q01959, W84L).
T2 sequence (Q01959 1-620 W84L): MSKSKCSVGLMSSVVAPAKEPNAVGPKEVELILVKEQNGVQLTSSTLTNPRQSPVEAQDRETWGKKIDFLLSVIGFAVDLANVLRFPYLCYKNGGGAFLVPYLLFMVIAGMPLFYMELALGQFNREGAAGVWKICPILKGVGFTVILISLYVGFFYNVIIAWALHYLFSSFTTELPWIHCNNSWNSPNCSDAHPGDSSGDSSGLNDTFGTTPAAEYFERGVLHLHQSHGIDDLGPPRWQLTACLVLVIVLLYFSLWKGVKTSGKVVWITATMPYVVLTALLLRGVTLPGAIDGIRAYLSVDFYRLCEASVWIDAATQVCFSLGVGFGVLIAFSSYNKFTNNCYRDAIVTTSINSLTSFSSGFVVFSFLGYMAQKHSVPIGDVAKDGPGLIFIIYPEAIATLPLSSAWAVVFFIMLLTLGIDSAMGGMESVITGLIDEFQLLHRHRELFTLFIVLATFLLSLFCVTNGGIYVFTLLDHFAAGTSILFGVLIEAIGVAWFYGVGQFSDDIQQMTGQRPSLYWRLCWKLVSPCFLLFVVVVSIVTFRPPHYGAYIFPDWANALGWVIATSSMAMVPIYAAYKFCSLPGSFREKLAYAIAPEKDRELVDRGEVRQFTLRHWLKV
The test is described as follows: displacement of intact-cell [3H]CFT binding, W84L mutant hDAT.

The target of the next test is hDAT D313N mutant (Homo sapiens, UniProt Q01959, D313N). Kind of test: displacement of intact-cell [3H]CFT binding, D313N mutant hDAT.
The target in test [2] is T1, WT hDAT. The following applies: inhibition of [3H]DA uptake; ref Chen et al. (2004); cited from earlier work.

Where two headings read alike, the source gives them in different places. Marks after values point to notes of the source that are not given here.

T1 sequence (Q01959 whole entry): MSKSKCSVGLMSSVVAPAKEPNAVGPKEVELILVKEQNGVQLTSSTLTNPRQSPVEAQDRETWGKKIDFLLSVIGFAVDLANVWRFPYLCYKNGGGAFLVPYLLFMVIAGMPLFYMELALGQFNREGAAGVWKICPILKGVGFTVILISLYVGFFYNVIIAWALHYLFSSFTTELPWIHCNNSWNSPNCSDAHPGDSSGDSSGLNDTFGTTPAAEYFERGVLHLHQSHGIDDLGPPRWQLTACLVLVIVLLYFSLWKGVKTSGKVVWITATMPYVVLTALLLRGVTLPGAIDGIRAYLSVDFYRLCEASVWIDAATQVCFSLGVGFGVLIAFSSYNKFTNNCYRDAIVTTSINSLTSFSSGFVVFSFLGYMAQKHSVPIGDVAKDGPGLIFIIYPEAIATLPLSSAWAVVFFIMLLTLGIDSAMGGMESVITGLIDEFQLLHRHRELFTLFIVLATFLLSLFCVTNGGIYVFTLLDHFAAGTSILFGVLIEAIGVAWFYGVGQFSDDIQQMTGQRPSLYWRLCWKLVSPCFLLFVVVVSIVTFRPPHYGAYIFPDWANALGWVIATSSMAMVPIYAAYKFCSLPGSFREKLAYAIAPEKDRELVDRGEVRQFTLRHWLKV
Sequence of wild-type hDAT (Q01959 whole entry): as above
Sequence of hDAT D313N mutant (Q01959 whole entry D313N): as the sequence (Q01959 whole entry) above, with D313N counted along it

`CCCNC(C)Cc1ccccc1` (stereo not drawn) [(dl)-propylamphetamine, N-propylamphetamine, reference compound]: at WT hDAT [1], the “Uptake Kapp, WT” value came to 2497 ± 138 nM and the “Kapp / Ki ratio” value is recorded as 1.8–2.5. For the same compound, the inhibition constant Ki at wild-type hDAT (read-out: hDAT Binding Ki, WT) was found to be 988 ± 67.6 nM.
As to `CN1[C@@H]2CC[C@H]1C[C@@H](OC(c1ccccc1)c1ccccc1)C2` [benztropine, reference compound], the “Uptake Kapp, WT” value on WT hDAT [1] came to 375.5 ± 6.35 nM.
In the case of `NCCc1ccccc1` [β-phenethylamine, reference compound], the “Uptake Kapp, WT” value on WT hDAT [1] came out at 1103 ± 206 nM. Moreover, the inhibitory constant (Ki) at wild-type hDAT (read-out: hDAT Binding Ki, WT) came out at 3261 ± 21.5 nM.
For the compound `CC(NC(C)(C)C)C(=O)c1cccc(Cl)c1` (stereo not shown) [bupropion, reference compound], the “Uptake Kapp, WT” value at WT hDAT [1] came out at 576.5 ± 29.1 nM.
Take `CC(Cc1ccccc1)NCCCCCCNCCc1ccccc1` [Compound D-370]: the “Uptake Kapp, WT” value at WT hDAT [1] came out at 204.7 ± 9.75 nM. On wild-type hDAT (read-out: hDAT Binding Ki, WT), the inhibition constant Ki is 97.8 ± 10 nM.
On to `C[C@H](N)Cc1ccccc1` [(d)-amphetamine, reference compound], for which, on WT hDAT [1], the “Uptake Kapp, WT” value was 163.5 ± 4.57 nM.
Regarding hydroxydopentamine [Compound D-310], the “Uptake Kapp, WT” value on WT hDAT [1] turned out to be 155.3 ± 18.6 nM. Also, the Ki at wild-type hDAT (read-out: hDAT Binding Ki, WT) came out at 91.4 ± 12.5 nM.
For the compound `CC(Cc1ccccc1)NCCCNCCc1ccc(O)c(O)c1` [Compound D-309], the “Uptake Kapp, WT” value on WT hDAT [1] stood at 740.8 ± 30.1 nM. Further, the “fold increase in binding affinity over monovalent DA” value (“fold increase … over monovalent DA” for short) at wild-type hDAT ([3H]CFT binding, WT hDAT) came out at 13 fold. The inhibitory constant (Ki) on wild-type hDAT (read-out: hDAT Binding Ki, WT) is 322 ± 15.3 nM.
As for `CC(CCc1ccc(O)cc1)NCCc1ccc(O)c(O)c1` (stereo not drawn) [(dl)-dobutamine, dobutamine, reference compound], the inhibitory constant (Ki) on hDAT W84L mutant is 237 ± 23.9 nM; at wild-type hDAT (hDAT Binding Ki, WT), 196 ± 14.3 nM; at hDAT D313N mutant, 257 ± 26.5 nM. Moreover, at WT hDAT [1], the “Uptake Kapp, WT” value was found to be 329.4 ± 16.5 nM. Also, the “fold increase … over monovalent DA” value at wild-type hDAT ([3H]CFT binding, WT hDAT) is 21 fold.
Turning to `CN[C@@H](C)Cc1ccccc1` [(d)-methamphetamine, reference compound], the “Uptake Kapp, WT” value on WT hDAT [1] came to 141.7 ± 18.8 nM. Also, at wild-type hDAT (read-out: hDAT Binding Ki, WT), the Ki worked out at 341 ± 42.7 nM.
`Oc1ccc(CCNCCCCCCCCNCCc2ccc(O)c(O)c2)cc1O` [Compound D-362]: the “Uptake Kapp, WT” value on WT hDAT [1] is 105.7 ± 2.98 nM. For the same compound, the “fold increase … over monovalent DA” value on wild-type hDAT ([3H]CFT binding, WT hDAT) is reported as 82 fold. Also, the inhibition constant (Ki) at wild-type hDAT (read-out: hDAT Binding Ki, WT) came out at 51.9 nM.
The matching figures for `Oc1ccc(CCNCCCCCCNCCc2ccc(O)c(O)c2)cc1O` [Compound D-361]: 134.9 ± 17.5 nM, 61 fold and 69.7 ± 9.54 nM.
As to `CC(CCc1ccc(O)c(O)c1)NCCc1ccc(O)c(O)c1` [Compound D-278, hydroxydobutamine], the “Uptake Kapp, WT” value on WT hDAT [1] turned out to be 187.5 ± 30.2 nM. At wild-type hDAT ([3H]CFT binding, WT hDAT), the “fold increase in affinity compared to dobutamine” value came out at 4 fold and the “fold increase … over monovalent DA” value is 74 fold. On wild-type hDAT (read-out: hDAT Binding Ki, WT), the Ki came to 58 ± 2.9 nM. In addition, on wild-type hDAT (read-out: hDAT Binding Ki, WT, listed as hydroxydobutamine), the Ki is approximately 58 nM.
For the compound `CC(Cc1ccccc1)NCCc1ccc(O)c(O)c1` [Compound D-279, dopamphetamine], the “Uptake Kapp, WT” value on WT hDAT [1] was 605.3 ± 46.7 nM. Further, the “fold increase in binding affinity compared to (d)-amphetamine” value on wild-type hDAT ([3H]CFT binding, WT hDAT) is 2 fold. Also, at wild-type hDAT (read-out: hDAT Binding Ki, WT), the Ki came to 342 ± 5.38 nM.
Regarding `Oc1ccc(CCNCCCCCCNCCc2ccccc2)cc1O` [dopexamine, reference compound], the Ki is 147 ± 5.09 nM at hDAT W84L mutant; 96.9 ± 13.7 nM on wild-type hDAT (hDAT Binding Ki, WT); 192 ± 20.6 nM at hDAT D313N mutant. At WT hDAT [1], the “Uptake Kapp, WT” value worked out at 187.5 ± 19.2 nM.
In the case of `COC(=O)[C@H]1[C@@H](c2ccc(F)cc2)C[C@@H]2CC[C@H]1N2C` [β-CFT, 2β-carbomethoxy-3β-(4-fluorophenyl)-tropane], the “Uptake Kapp, WT” value on WT hDAT [2] is reported as 30.0 ± 4.0 ^b nM.
As for `COC(=O)[C@H]1[C@@H](OC(=O)c2ccccc2)C[C@@H]2CC[C@H]1N2C` [cocaine], the “Uptake Kapp, WT” value on WT hDAT [2] was 246.0 ± 25.0 ^b nM.
Take `Oc1ccc(CCNCCCCCNCCc2ccc(O)c(O)c2)cc1O` [Compound D-347]: the “Uptake Kapp, WT” value at WT hDAT [1] is recorded as 171.5 ± 1.60 nM. Also, the “fold increase … over monovalent DA” value at wild-type hDAT ([3H]CFT binding, WT hDAT) worked out at 51 fold. In addition, the Ki on wild-type hDAT (read-out: hDAT Binding Ki, WT) was determined as 83.3 ± 8.74 nM.
Turning to `CCCCCCNCCc1ccc(O)c(O)c1` [Compound D-363, N-hexyldopamine], the “fold loss of activity as inhibitor of [3H]DA uptake relative to dopamine” value on WT hDAT [1] (WT hDAT) is reported as more than 7 fold. In addition, on WT hDAT [1], the “Uptake Kapp, WT” value amounted to 3075 ± 223 nM and the “Kapp / Ki ratio” value is 1.8–2.5. On wild-type hDAT ([3H]CFT binding, WT hDAT), the “fold weaker binding than the bivalent D-361” value stood at 25 fold and the “fold increase … over monovalent DA” value came to 2.5 fold. In addition, the inhibitory constant (Ki) at wild-type hDAT (read-out: hDAT Binding Ki, WT) amounted to 1740 ± 191 nM.
For `Oc1ccc(CCNCCCNCCc2ccc(O)c(O)c2)cc1O` [Compound D-307], on WT hDAT [1], the “Uptake Kapp, WT” value came to 1691 ± 197 nM. Besides, the “fold increase … over monovalent DA” value at wild-type hDAT ([3H]CFT binding, WT hDAT) is given as 5 fold. The Ki on wild-type hDAT (read-out: hDAT Binding Ki, WT) is 875 ± 71.4 nM.
Regarding `CC(Cc1ccccc1)NCCCCCCNCCc1ccc(O)c(O)c1` [Compound D-371], the “Uptake Kapp, WT” value at WT hDAT [1] is 244.5 ± 21.5 nM. In addition, on wild-type hDAT ([3H]CFT binding, WT hDAT), the “fold increase in binding affinity compared to (d)-amphetamine” value is given as 6 fold and the “fold increase … over monovalent DA” value is on record as 42 fold. In addition, the Ki at wild-type hDAT (read-out: hDAT Binding Ki, WT) came out at 101 ± 13.4 nM.
